Laboratory results reported in patent US20250353825A1, “CANNABICYCLOL DERIVATIVES AND PREPARATION METHODS THEREOF” (priority 2023, published 2025).
Like-named read-outs stand apart in the source and are kept apart here.

Key:
Type in all cases: cell-based
[1] = test system: GSC-3 (3#-GSC); test: MTS cell viability assay, glioblastoma stem cells GSC-3 (3#-GSC); conditions: for selective anti-glioma stem cell viability: judged in words from preliminary viability screening against 3#-GSC, 293T and U251
Protocol: (§1) Primary viability screening: (1) the synthesized compounds 3a to 13d were respectively dissolved in DMSO to prepare a 40 μg/mL cannabicyclol and cannabicyclol derivative solutions.
(§2) (2) A control group: a 200 μL DMSO solvent.
(§3) (3) The solutions of compounds 3a to 13d were diluted in a twofold gradient to obtain cannabicyclol and cannabicyclol derivative solutions at concentrations of 40 μg/mL, 20 μg/mL, 10 μg/mL, 5 μg/mL, 2.5 μg/mL, 1.25 μg/mL, and 0.625 μg/mL, and 0.3125 μg/mL, respectively.
(§4) (4) Three glioblastoma stem cells (GSC-3, GSC-12, and GSC-18), three pancreatic cancer cell-derived stem cells (PANC-1-CSC, BXPC-3-CSC, and ASPC1-CSC), three liver cancer cell-derived stem cells (HepG2-CSC, MHCC97H-CSC, and SMMC7721-CSC), HEK-293T cells, 16 tumor cells (U251, U87, T98G, PANC1, BXPC3, ASPC1, HepG2, MHCC97H, SMMC7721, PC3, SKOV3, MDA-MB231, A549, HCT116, HEC-1B, MKN28), and differentiated glioblastoma stem cells (GSC-3diff and GSC-12diff) derived from GSC-3 and GSC-12 (all of the cells were provided by the Laboratory of Tumor Animal Model Preparation and Application Research, West China Hospital, Sichuan University) were inoculated into a 96-well plate at a concentration of 2×10^4 cells/well, and 100 μL of culture medium was then added to each well;
(§5) (5) 2) HEK-293T, GSC-3diff, GSC-12diff, and the 16 tumor cells were added with DMEM, 10% FBS, and 1% double antibody culture medium. Cancer stem cells (CSCs) were added with serum-free stem cell medium consisting of DMEM/F12, EGF (20 ng/mL), bFGF (20 ng/mL), B27 (1×), and 1% double antibody culture medium.
(§6) (6) Inoculated cells were put into a cell culture incubator for 24 hours, and after the cells were well adhered to the wall, the culture medium in the 96-well plate was discarded.
(§7) (7) 200 μL cannabicyclol and cannabicyclol derivatives solutions at different concentrations were added to the cultured cells.
(§8) (8) The experiment was set up with 3 replicates.
(§9) (9) The 96-well plate was placed in a cell culture incubator, and incubation was continued at 37° C. and 5% CO2 for 72 hours. Then, 100 μL of cannabicyclol and cannabicyclol derivative solution per well was discarded (100 μL of DMSO solvent was discarded for the control group), and 20 μL of LMTS (CellTiter AQueous Non-Radioactive Cell Proliferation Assay, #G3581) was mixed and continued to be placed in the cell incubator for 2 hours of incubation.
(§10) (10) The absorbance value at 490 nm was measured on an enzyme labeling apparatus, and the IC50 value was calculated.

[2] = MTS cell viability assay, HEK-293T (293T) normal cells; conditions: human
Protocol: as §1, §2, §3, §4, §5, §6, §7, §8, §9, §10

[3] = test system: U251; test: MTS cell viability assay, U251
Protocol: as §1, §2, §3, §4, §5, §6, §7, §8, §9, §10

[4] = primary viability screening, 72 hours, MTS, test concentration not stated
[5] = primary viability screening, 72 hours, MTS, test concentration not stated, read-out: Cell viability in 293T (%)
[6] = HEK-293T (293T) normal cells, primary viability screening, 72 hours, MTS, test concentration not stated, read-out: Cell viability in 293T (%)

Compound | selective anti-glioma stem cell viability [1] | Cell viability in 3#-GSC (%) [1, 4] | viability at 72 h [2, 5] | Cell viability in U251 (%) [3, 4] | Cell viability in 3#-GSC (%) ([1]; 72 h) | viability at 72 h [2] | Cell viability in U251 (%) ([3]; human, 72 h) | viability at 72 h [2, 6]
CC12CCC3C1C(c1c(O)cccc1O2)C3(C)C (centres unmarked) [Compound 3b] | selective anti-glioma stem cell viability | 32% | 97% | 97% | – | – | – | –
Cc1cc(O)c2c(c1)OC1(C)CCC3C1C2C3(C)C (centres unmarked) [Compound 3c] | – | – | – | – | ≥100% | ≥ 100% | 88% | –
CCCc1cc(O)c2c(c1)OC1(C)CCC3C1C2C3(C)C (centres unmarked) [Compound 3d] | – | 40% | – | 71% | – | – | – | 91%
CCCCc1cc(O)c2c(c1)OC1(C)CCC3C1C2C3(C)C (centres unmarked) [Compound 3e] | – | 30% | – | 17% | – | – | – | 60%
CCCCCCc1cc(O)c2c(c1)OC1(C)CCC3C1C2C3(C)C (centres unmarked) [Compound 3f] | a certain degree of selective anti-glioma stem cell viability | 20% | – | 78% | – | – | – | 18%
CCCCCCCc1cc(O)c2c(c1)OC1(C)CCC3C1C2C3(C)C (centres unmarked) [Compound 3g] | – | 90% | – | 79% | – | – | – | 11%
CCCCCCCCc1cc(O)c2c(c1)OC1(C)CCC3C1C2C3(C)C (centres unmarked) [Compound 3h] | – | 87% | – | 75% | – | – | – | 16%
CCCCCCCCCCCCCc1cc(O)c2c(c1)OC1(C)CCC3C1C2C3(C)C (centres unmarked) [Compound 3i] | – | 33% | – | 79% | – | – | – | 8%
CC12CCC3C1C(c1c(O)cc(-c4ccccc4)cc1O2)C3(C)C (centres unmarked) [Compound 3k] | – | – | – | – | 52% | 45% | 15% | –
Cc1ccc(-c2cc(O)c3c(c2)OC2(C)CCC4C2C3C4(C)C)cc1 (centres unmarked) [Compound 3l] | – | – | – | – | 51% | 62% | 45% | –
Cc1cccc(-c2cc(O)c3c(c2)OC2(C)CCC4C2C3C4(C)C)c1 (centres unmarked) [Compound 3m] | weak selective anti-glioma stem cell viability | – | – | – | 42% | ≥ 100% | 90% | –
Cc1ccccc1-c1cc(O)c2c(c1)OC1(C)CCC3C1C2C3(C)C (centres unmarked) [Compound 3n] | – | – | – | – | 41% | 50% | 17% | –
Cc1cc(C)cc(-c2cc(O)c3c(c2)OC2(C)CCC4C2C3C4(C)C)c1 (centres unmarked) [Compound 3o] | – | – | – | – | 64% | 81% | 88% | –
CC(C)(C)c1ccc(-c2cc(O)c3c(c2)OC2(C)CCC4C2C3C4(C)C)cc1 (centres unmarked) [Compound 3p] | weak selective anti-glioma stem cell viability | – | – | – | 67% | ≥ 100% | 97% | –
COc1ccc(-c2cc(O)c3c(c2)OC2(C)CCC4C2C3C4(C)C)cc1 (centres unmarked) [Compound 3q] | – | – | – | – | 39% | 40% | 19% | –
CC12CCC3C1C(c1c(O)cc(-c4ccc(F)cc4)cc1O2)C3(C)C (centres unmarked) [Compound 3r] | – | – | – | – | 43% | 45% | 76% | –

Compound | selective anti-glioma stem cell viability [1] | Cell viability in 3#-GSC (%) [1, 4] | viability at 72 h [2, 5] | Cell viability in U251 (%) [3, 4] | Cell viability in 3#-GSC (%) ([1]; 72 h) | viability at 72 h [2] | Cell viability in U251 (%) ([3]; human, 72 h) | viability at 72 h [2, 6]
CC12CCC3C1C(c1c(O)cc(-c4ccc(Cl)cc4)cc1O2)C3(C)C (centres unmarked) [Compound 3s] | – | – | – | – | 49% | 64% | 91% | –
CCCCCc1cc(O)c2c(c1)OC1(C)CCC3C(C)C2C31 (centres unmarked) [Compound 3u] | – | 30% | – | 72% | – | – | – | 78%
CCCCCc1cc(O)c2c(c1)OC1(C)CCC3C(CC)C2C31 (centres unmarked) [Compound 3v] | – | 30% | 79% | 71% | – | – | – | –
CCCCCc1cc(O)c2c(c1)OC1(C)CCC3C(c4ccccc4)C2C31 (centres unmarked) [Compound 3x] | – | 70% | – | 77% | – | – | – | 97%
CCCCCc1cc(O)c2c(c1)OC1(C)CCC3C(C4CC4)C2C31 (centres unmarked) [Compound 3y] | – | 47% | – | 98% | – | – | – | ≥ 100%
C=CCOc1cc(CCCCC)cc2c1C1C3C(CCC3(C)O2)C1(C)C (centres unmarked) [Compound 7a] | – | ≥100% | – | 81% | – | – | – | 77%
CCCCCc1cc(OC)c2c(c1)OC1(C)CCC3C1C2C3(C)C (centres unmarked) [Compound 7b] | – | ≥100% | – | 91% | – | – | – | 95%
CCCCCc1cc(OCC)c2c(c1)OC1(C)CCC3C1C2C3(C)C (centres unmarked) [Compound 7c] | – | ≥100% | – | 80% | – | – | – | 79%
CCCCCc1cc(OCCC)c2c(c1)OC1(C)CCC3C1C2C3(C)C (centres unmarked) [Compound 7d] | – | ≥100% | – | 82% | – | – | – | 77%
C#CCOc1cc(CCCCC)cc2c1C1C3C(CCC3(C)O2)C1(C)C (centres unmarked) [Compound 7e] | – | ≥100% | – | 72% | – | – | – | 75%
CCCCCc1cc(OCC(=O)NCCc2cc3ccccc3[nH]2)c2c(c1)OC1(C)CCC3C1C2C3(C)C (centres unmarked) [Compound 7h] | – | 72% | – | ≥100% | – | – | – | 87%
CCCCCc1cc(OCc2cn(S(=O)(=O)c3ccc(C)cc3)nn2)c2c(c1)OC1(C)CCC3C1C2C3(C)C (centres unmarked) [Compound 7i] | – | 50% | – | 21% | – | – | – | 71%
CCCCCc1cc(OC(C)=O)c2c(c1)OC1(C)CCC3C1C2C3(C)C (centres unmarked) [Compound 9b] | both the viability and selectivity were maintained | 28% | – | 82% | – | – | – | 92%
CCCCCc1cc(OC(=O)Cc2ccc3ccccc3c2)c2c(c1)OC1(C)CCC3C1C2C3(C)C (centres unmarked) [Compound 9e] | – | ≥100% | – | ≥100% | – | – | – | ≥ 100%
C=CC(=O)Oc1cc(CCCCC)cc2c1C1C3C(CCC3(C)O2)C1(C)C (centres unmarked) [Compound 9f] | – | 41% | – | 64% | – | – | – | 35%
CCCCCc1cc(OC(=O)/C=C/c2ccccc2)c2c(c1)OC1(C)CCC3C1C2C3(C)C (centres unmarked) [Compound 9g] | – | ≥100% | – | ≥100% | – | – | – | ≥ 100%
